The experiment deals with Recombinant human ATX (Homo sapiens (Human), UniProt Q13822). Nature of the experiment: ATX inhibition assay (choline release, Amplex Red fluorescence). The class given is biochemical. Conditions: ATX 10 nM, LPC 18:1 10 μM, 37° C., 20 min pre-incubation; mean of n≧2. As to the method: Reagents—LPC (oleoyl (18:1)) was purchased from Avanti Polar Lipids (Alabaster, Ala.) and solubilized in methanol to 20 mM. Amplex Red was obtained from Invitrogen Life Technologies (Paisley, UK) and dissolved in DMSO to 10 mM. Choline oxidase and horseradish peroxidase (HRP) were obtained from Sigma Aldrich (Dorset, UK) and dissolved in HBSS to 20 U/ml and 200 U/ml respectively. All reagents were stored at −20° C. in single use aliquots. All experimental measurements were performed in assay buffer made up immediately prior to use (HBSS, 0.01% BSA essentially fatty acid free).
PerkinElmer EnVision (Fluorescence Intensity/Absorbance Monochromator) or Tecan Infinite 200 PRO series plate reader was used to detect change in fluorescent intensity.
Assessing ATX inhibition—ATX activity was determined by measurement of released choline in reactions containing ATX (10 nM), choline oxidase (0.1 U/ml), HRP (100 U/ml), amplex red (50 μM) and LPC 18:1 (10 μM). Compounds of the invention were prepared as 10 point serial dilutions from 1 μM in duplicate and pre-incubated with ATX at 37° C. for 20 minutes prior to the addition of remaining reagents. The liberated choline was measured from changes in fluorescence intensity (λex 530 nm, λem 590 nm) of the product resurofin at 37° C. every 2 minutes over a 40-minute period. ATX activity was measured as a slope of the linear portion of the progress curve, typically between 14 to 24 minutes.
Data analysis—Slope data was exported to Graphpad prism (Graphpad software, San Diego, Calif.) where data was fitted to equation 1. Y=Bottom+(Top-Bottom)/(1+10^((Log IC50−X)*HillSlope)) Equation 1: […]
Regarding `Cc1nnn(Cc2cc(Cl)ccc2/C=C/C(=O)N2CCC(c3noc(C)n3)CC2)n1` [Example 19, (E)-3-(4-Chloro-2-((5-methyl-2H-tetrazol-2-yl)methyl)phenyl)-1-(4-(5-methyl-1,2,4-oxadiazol-3-yl)piperidin-1-yl)prop-2-en-1-one], the IC50 (as a rule, the point on the concentration scale where inhibition reaches its midpoint) turned out to be 31 nM.

Take `COc1ccc(CN2CCN(C(=O)/C=C/c3ccc(Cl)cc3Cn3nnc(C)n3)[C@H](C)C2)nc1` [Example 123, (R,E)-3-(4-Chloro-2-((5-methyl-2H-tetrazol-2-yl)methyl)phenyl)-1-(4-((5-methoxypyridin-2-yl)methyl)-2-methylpiperazin-1-yl)prop-2-en-1-one]: the half-inhibitory concentration (IC50) was 3.5 nM.

Consider `Cc1nnn(Cc2cc(Cl)ccc2/C=C/C(=O)N2CCC(C(F)(F)F)CC2)n1` [Example 49.12, (E)-3-(4-Chloro-2-((5-methyl-2H-tetrazol-2-yl)methyl)phenyl)-1-(4-(trifluoromethyl)piperidin-1-yl)prop-2-en-1-one], for which the concentration for half-maximal inhibition (IC50) worked out at 49 nM.

On to `Cc1cnc(Cc2cc(Cl)ccc2/C=C/C(=O)N2CCC(Cc3nnc(C)o3)CC2)o1` [Example 45, (E)-3-(4-Chloro-2-((5-methyloxazol-2-yl)methyl)phenyl)-1-(4-((5-methyl-1,3,4-oxadiazol-2-yl)methyl)piperidin-1-yl)prop-2-en-1-one], for which the IC50 is 644 nM.

`COC(=O)C1COCCN1C(=O)/C=C/c1ccc(Cl)cc1Cn1nnc(C)n1` (centres unmarked) [Example 49.23, (E)-Methyl 4-(3-(4-Chloro-2-((5-methyl-2H-tetrazol-2-yl)methyl)phenyl)acryloyl)morpholine-3-carboxylate]: the IC50 is 78 nM.

As to `Cc1nnn(Cc2cc(Cl)ccc2/C=C/C(=O)N2CCC(O)(Cn3cc(C(=O)N4CCCCC4)cn3)CC2)n1` [Example 16, (E)-3-(4-Chloro-2-((5-methyl-2H-tetrazol-2-yl)methyl)phenyl)-1-(4-hydroxy-4-((4-(piperidine-1-carbonyl)-1H-pyrazol-1-yl)methyl)piperidin-1-yl)prop-2-en-1-one], the IC50 worked out at 11 nM.

With `COC(=O)C1SCCN1C(=O)/C=C/c1ccc(Cl)cc1Cn1nnc(C)n1` (centres unmarked) [Example 49.27, (E)-Methyl 3-(3-(4-chloro-2-((5-methyl-2H-tetrazol-2-yl)methyl)phenyl)acryloyl)thiazolidine-2-carboxylate], the half-inhibitory concentration (IC50) worked out at 110 nM.

With `Cc1nnn(Cc2cc(Cl)ccc2/C=C/C(=O)N2CCCCC2c2nc(C(C)C)no2)n1` (racemic) [Example 30, (rac)-(E)-3-(4-Chloro-2-((5-methyl-2H-tetrazol-2-yl)methyl)phenyl)-1-(2-(3-isopropyl-1,2,4-oxadiazol-5-yl)piperidin-1-yl)prop-2-en-1-one], the IC50 is 11 nM.

Turning to `CCCNC(=O)COC1CCN(C(=O)/C=C/c2ccc(Cl)cc2Cn2nnc(C)n2)CC1` [Example 49.30, (E)-2-((1-(3-(4-Chloro-2-((5-methyl-2H-tetrazol-2-yl)methyl)phenyl)acryloyl)piperidin-4-yl)oxy)-N-propylacetamide], the IC50 amounted to 52 nM.

Take `Cc1nnn(Cc2cc(C(F)(F)F)ccc2/C=C/C(=O)N2CCN(Cc3coc(C)n3)C[C@H]2C)n1` [Example 69, (R,E)-3-(2-((5-Methyl-2H-tetrazol-2-yl)methyl)-4-(trifluoromethyl)phenyl)-1-(2-methyl-4-((2-methyloxazol-4-yl)methyl)piperazin-1-yl)prop-2-en-1-one]: the concentration for half-maximal inhibition (IC50) worked out at 2 nM.

For the molecule `COc1ccc(CN2CCN(C(=O)/C=C/c3ccc(Cl)cc3Cn3nnc(C)n3)CC2)nc1` [Example 140.1, (E)-3-(4-Chloro-2-((5-methyl-2H-tetrazol-2-yl)methyl)phenyl)-1-(4-((5-methoxypyridin-2-yl)methyl)piperazin-1-yl)prop-2-en-1-one], the IC50 was found to be 5.9 nM.

As to `COCC1CCCN(C(=O)/C=C/c2ccc(Cl)cc2Cn2nnc(C)n2)C1` (centres unmarked) [Example 49.17, (E)-3-(4-Chloro-2-((5-methyl-2H-tetrazol-2-yl)methyl)phenyl)-1-(3-(methoxymethyl)piperidin-1-yl)prop-2-en-1-one], the IC50 was determined as 222 nM.

For `Cc1ncn(C2CCN(C(=O)/C=C/c3ccc(Cl)cc3Cn3nnc(C)n3)CC2)n1` [Example 10, (E)-3-(4-Chloro-2-((5-methyl-2H-tetrazol-2-yl)methyl)phenyl)-1-(4-(3-methyl-1H-1,2,4-triazol-1-yl)piperidin-1-yl)prop-2-en-1-one], the IC50 amounted to 40 nM.

As for `Cc1nnn(Cc2cc(C(F)(F)F)ccc2/C=C/C(=O)N2CCN(Cc3cnn(C)c3)C[C@H]2C)n1` [Example 70, (R,E)-3-(2-((5-Methyl-2H-tetrazol-2-yl)methyl)-4-(trifluoromethyl)phenyl)-1-(2-methyl-4-((1-methyl-1H-pyrazol-4-yl)methyl)piperazin-1-yl)prop-2-en-1-one], the half-inhibitory concentration (IC50) was 4.2 nM.

As to `Cc1cc(CC(=O)N(C)C2CCN(C(=O)/C=C/c3ccc(C(F)(F)F)cc3Cn3nnc(C)n3)CC2)on1` [Example 95, (E)-N-Methyl-N-(1-(3-(2-((5-methyl-2H-tetrazol-2-yl)methyl)-4-(trifluoromethyl)phenyl)acryloyl)piperidin-4-yl)-2-(3-methylisoxazol-5-yl)acetamide], the half-maximal inhibitory concentration (IC50) came out at 25 nM.

Take `CC(=O)C1CCCN(C(=O)/C=C/c2ccc(Cl)cc2Cn2nnc(C)n2)C1` (centres unmarked) [Example 49.15, (E)-1-(3-Acetylpiperidin-1-yl)-3-(4-chloro-2-((5-methyl-2H-tetrazol-2-yl)methyl)phenyl)prop-2-en-1-one]: the IC50 came to 127 nM.

As to `Cc1nnn(Cc2cc(C(F)(F)F)ccc2/C=C/C(=O)N2CCN(Cc3nonc3C)CC2)n1` [Example 116, (E)-1-(4-((4-Methyl-1,2,5-oxadiazol-3-yl)methyl)piperazin-1-yl)-3-(2-((5-methyl-2H-tetrazol-2-yl)methyl)-4-(trifluoromethyl)phenyl)prop-2-en-1-one], the half-inhibitory concentration (IC50) was 33 nM.

For the molecule `Cc1nnn(Cc2cc(Cl)ccc2/C=C/C(=O)N2CCC(Cc3ccccc3)CC2)n1` [Example 139, (E)-1-(4-Benzylpiperidin-1-yl)-3-(4-chloro-2-((5-methyl-2H-tetrazol-2-yl)methyl)phenyl)prop-2-en-1-one], the IC50 is 67 nM.

`COc1ccc(CN(C)C2CCN(C(=O)/C=C/c3ccc(C(F)(F)F)cc3Cn3nnc(C)n3)CC2)cc1` [Example 119, (E)-1-(4-((4-Methoxybenzyl)(methyl)amino)piperidin-1-yl)-3-(2-((5-methyl-2H-tetrazol-2-yl)methyl)-4-(trifluoromethyl)phenyl)prop-2-en-1-one]: the 50% inhibitory concentration (IC50) was 47 nM.

With `COC(=O)C1CCN(C(=O)/C=C/c2ccc(C(F)(F)F)cc2Cn2nnc(C)n2)CC1` [Example 67, (E)-Methyl 1-(3-(2-((5-methyl-2H-tetrazol-2-yl)methyl)-4-(trifluoromethyl)phenyl)acryloyl)piperidine-4-carboxylate], the concentration for half-maximal inhibition (IC50) is 8.8 nM.

`Cc1nnn(Cc2cc(Cl)ccc2/C=C/C(=O)N2CCC(O)(Cc3ccccc3)CC2)n1` [Example 138, (E)-1-(4-Benzyl-4-hydroxypiperidin-1-yl)-3-(4-chloro-2-((5-methyl-2H-tetrazol-2-yl)methyl)phenyl)prop-2-en-1-one-N]: the concentration for half-maximal inhibition (IC50) was found to be 6.3 nM.

As for `Cc1nnn(Cc2cc(Cl)ccc2/C=C/C(=O)N2CCC(n3nnc(C)n3)CC2)n1` [Example 17, (E)-3-(4-Chloro-2-((5-methyl-2H-tetrazol-2-yl)methyl)phenyl)-1-(4-(5-methyl-2H-tetrazol-2-yl)piperidin-1-yl)prop-2-en-1-one], the IC50 stood at 24 nM.

Consider `Cc1nc(Cc2cc(Cl)ccc2/C=C/C(=O)N2CCN(Cc3ccc(F)cc3)C[C@H]2C)no1` [Example 144, (R,E)-3-(4-Chloro-2-((5-methyl-1,2,4-oxadiazol-3-yl)methyl)phenyl)-1-(4-(4-fluorobenzyl)-2-methylpiperazin-1-yl)prop-2-en-1-one], for which the IC50 was determined as 14 nM.

Turning to `Cc1nnn(Cc2ccc(F)cc2/C=C/C(=O)N2CCC(Cc3nnc(C)o3)CC2)n1` [Example 79, (E)-3-(5-Fluoro-2-((5-methyl-2H-tetrazol-2-yl)methyl)phenyl)-1-(4-((5-methyl-1,3,4-oxadiazol-2-yl)methyl)piperidin-1-yl)prop-2-en-1-one], the IC50 was 3140 nM.

For `Cc1nnn(Cc2cc(Cl)ccc2/C=C/C(=O)N2CCC[C@H]2c2nnc(C)o2)n1` [Example 8, (S,E)-3-(4-Chloro-2-((5-methyl-2H-tetrazol-2-yl)methyl)phenyl)-1-(2-(5-methyl-1,3,4-oxadiazol-2-yl)pyrrolidin-1-yl)prop-2-en-1-one], the IC50 was determined as 378 nM.

As to `Cc1cc(CN2CCN(C(=O)/C=C/c3ccc(C(F)(F)F)cc3Cn3nnc(C)n3)CC2)on1` [Example 101, (E)-3-(2-((5-Methyl-2H-tetrazol-2-yl)methyl)-4-(trifluoromethyl)phenyl)-1-(4-((3-methylisoxazol-5-yl)methyl)piperazin-1-yl)prop-2-en-1-one], the half-maximal inhibitory concentration (IC50) was 5 nM.

These data come from patent US9763957B2, “Autotaxin inhibitors” (Novartis AG, priority 2013, dated 2017).
